Measured values from patent US20250346574A1, “PYRIDINYL SUBSTITUTED OXOISOINDOLINE COMPOUNDS FOR THE TREATMENT OF CANCER” (Bristol-Myers Squibb Company, priority 2021, published 2025).

Experiments:
Helios [1] = molecular target: T1, Helios (Homo sapiens, UniProt Q96SW2+Q9UKS7); experiment: Helios Cellular Degradation Assay (Jurkat cells); type: cell-based; design: fluorescently labelled antibodies against Helios, Ikaros and Aiolos; endogenous in cells; host or cells: Jurkat cells; conditions: incubated 72 h, Helios-PE antibody staining, flow cytometry, read-out: Helios Jurkat IC50
T1 sequence (Q9UKS7 whole entry): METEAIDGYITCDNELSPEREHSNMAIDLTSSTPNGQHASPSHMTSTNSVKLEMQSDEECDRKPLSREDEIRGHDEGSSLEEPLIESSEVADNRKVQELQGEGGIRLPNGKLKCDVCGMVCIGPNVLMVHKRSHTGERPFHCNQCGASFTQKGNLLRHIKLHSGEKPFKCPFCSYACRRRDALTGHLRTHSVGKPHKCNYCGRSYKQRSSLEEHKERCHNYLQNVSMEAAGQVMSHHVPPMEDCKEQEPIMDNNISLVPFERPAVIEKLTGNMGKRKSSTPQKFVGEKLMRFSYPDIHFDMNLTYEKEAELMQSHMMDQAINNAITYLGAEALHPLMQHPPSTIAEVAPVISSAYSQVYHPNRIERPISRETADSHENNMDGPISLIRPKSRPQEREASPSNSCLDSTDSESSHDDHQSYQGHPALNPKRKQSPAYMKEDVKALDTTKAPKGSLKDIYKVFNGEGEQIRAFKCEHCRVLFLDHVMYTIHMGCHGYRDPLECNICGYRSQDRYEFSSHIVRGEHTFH
T1 sequence (Q96SW2 whole entry): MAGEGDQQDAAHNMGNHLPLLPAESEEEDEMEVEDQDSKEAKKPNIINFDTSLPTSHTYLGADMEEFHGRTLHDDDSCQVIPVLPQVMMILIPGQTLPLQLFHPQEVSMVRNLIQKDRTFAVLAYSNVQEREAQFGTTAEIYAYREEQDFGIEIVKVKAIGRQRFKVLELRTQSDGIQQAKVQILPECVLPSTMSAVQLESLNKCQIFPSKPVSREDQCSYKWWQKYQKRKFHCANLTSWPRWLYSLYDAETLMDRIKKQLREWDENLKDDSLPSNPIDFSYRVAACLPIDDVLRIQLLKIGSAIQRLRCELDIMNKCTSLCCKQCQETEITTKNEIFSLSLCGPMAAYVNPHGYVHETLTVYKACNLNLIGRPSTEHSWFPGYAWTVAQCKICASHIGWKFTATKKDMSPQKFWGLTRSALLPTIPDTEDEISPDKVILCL
T1 sequence (Q16531 whole entry partner): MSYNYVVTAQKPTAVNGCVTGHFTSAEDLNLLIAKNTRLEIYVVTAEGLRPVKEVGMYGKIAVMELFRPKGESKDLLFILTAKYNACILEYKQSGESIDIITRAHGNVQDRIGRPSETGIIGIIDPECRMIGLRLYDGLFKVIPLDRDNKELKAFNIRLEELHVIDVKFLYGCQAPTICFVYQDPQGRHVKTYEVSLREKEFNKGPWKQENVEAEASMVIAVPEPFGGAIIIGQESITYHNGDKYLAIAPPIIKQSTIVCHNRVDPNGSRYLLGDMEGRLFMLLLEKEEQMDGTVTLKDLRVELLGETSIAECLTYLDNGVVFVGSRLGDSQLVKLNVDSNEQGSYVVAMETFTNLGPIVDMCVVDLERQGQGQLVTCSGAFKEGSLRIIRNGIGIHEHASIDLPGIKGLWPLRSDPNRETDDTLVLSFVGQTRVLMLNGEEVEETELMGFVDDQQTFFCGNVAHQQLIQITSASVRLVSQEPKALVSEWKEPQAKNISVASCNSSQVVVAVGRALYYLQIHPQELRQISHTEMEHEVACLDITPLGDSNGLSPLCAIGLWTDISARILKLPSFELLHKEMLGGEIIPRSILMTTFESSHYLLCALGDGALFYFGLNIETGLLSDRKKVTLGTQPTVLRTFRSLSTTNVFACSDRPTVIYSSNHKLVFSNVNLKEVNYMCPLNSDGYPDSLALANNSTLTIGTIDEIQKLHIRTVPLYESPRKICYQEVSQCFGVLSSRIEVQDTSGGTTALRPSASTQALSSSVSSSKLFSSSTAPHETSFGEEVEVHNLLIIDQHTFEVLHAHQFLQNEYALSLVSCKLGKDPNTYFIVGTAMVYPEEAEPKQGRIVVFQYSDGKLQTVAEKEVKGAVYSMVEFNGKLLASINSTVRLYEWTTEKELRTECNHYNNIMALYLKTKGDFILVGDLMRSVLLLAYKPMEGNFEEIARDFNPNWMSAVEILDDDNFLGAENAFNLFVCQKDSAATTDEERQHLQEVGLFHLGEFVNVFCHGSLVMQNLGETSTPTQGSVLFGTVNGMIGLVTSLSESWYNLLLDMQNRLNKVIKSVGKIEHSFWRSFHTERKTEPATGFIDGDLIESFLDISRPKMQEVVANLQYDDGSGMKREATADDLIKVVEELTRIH
Method: Jurkat cells were plated at 80,000 cells/well in 40 μL RPMI+10% FBS in a 384 well cell culture plate prior to using acoustic dispensing technology for adding compound of interest. Cell cultures were incubated for 72 h at 37° C. and 5% CO2. In order to facilitate analysis, cell cultures were spun down at 200 rpm for 5 min and the supernatant was discarded. After shaking the plate to dislodge the cell pellet, cells were resuspended in 50 μL of Fixation Buffer (eBioScience FoxP3 buffer set 00-5523-00) for 60 min at room temperature. After centrifuging and discarding the supernatant, cells were permeabilized with 50 μL of Permeabilization buffer (eBioScience FoxP3 buffer set 00-5523-00) for 10 min at room temperature. Following permeabilization, cells were spun down and the supernatant was replaced with 20 μL fluorescently labelled antibodies against Helios, Ikaros and Aiolos or corresponding Isotype controls in 1× Permeabilization buffer (Ikaros-Alexa488 [Biolegend, Cat #368408, 1:50], Helios-PE [CST, Cat #29360, 1:50], Aiolos-Alexa647 [Biolegend, Cat #371106Biolegend, 1:25]) and staining reactions were incubated for 1 h at room temperature; protected from light. […] Stained cells were resuspended in 25 μL of flow cytometry staining buffer (PBS+0.2% BSA) and analyzed using an Intellicyt Ique Plus flow cytometer.

Helios [2] = molecular target: T1, Helios; experiment: Helios Human T Regulatory Cells Degradation Assay; type: cell-based; design: fluorescently labelled antibodies against Helios in 1× Permeabilization buffer; endogenous in cells; host or cells: cryopreserved human T regulatory cells; conditions: cryopreserved human T regulatory cells, incubated 20 hours, Helios-APC antibody staining, flow cytometry; read-out: hTreg Helios DC50
In short: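 Cryopreserved human Treg cells thawed in RPMI+10% FBS+20 ng/mL IL-2, rested 3 h, then incubated with compound 20 hours at 37° C, 5% CO2. Near-IR viability stain, permeabilization, flow cytometry read-out.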

| DC50 (Helios [1]) [nM] | DC50 (Helios [2]) [nM] | SMILES |
| --- | --- | --- |
| 736 |  | NC(=O)C1CCN1Cc1ccnc(-c2ccc3c(c2)CN(C2CCC(=O)NC2=O)C3=O)c1 (stereo not shown) [Example 79, 1-((2-(2-(2,6-dioxopiperidin-3-yl)-1-oxoisoindolin-5-yl)pyridin-4-yl)methyl) azetidine-2-carboxamide] |
|  | 31.8 | CC(C)(O)[C@@H]1CCN(Cc2ccnc(-c3ccc4c(c3F)CN(C3CCC(=O)NC3=O)C4=O)c2F)C1 (stereo partly drawn) [Example 278, 3-(4-fluoro-5-(3-fluoro-4-(((R)-3-(2-hydroxypropan-2-yl)pyrrolidin-1-yl)methyl)pyridin-2-yl)-1-oxoisoindolin-2-yl)piperidine-2,6-dione] |
|  | 34.3 | CC(C)(O)[C@H]1CCN(Cc2ccnc(-c3ccc4c(c3F)CN(C3CCC(=O)NC3=O)C4=O)c2F)C1 (stereo partly drawn) [Example 279, 3-(4-fluoro-5-(3-fluoro-4-(((S)-3-(2-hydroxypropan-2-yl)pyrrolidin-1-yl)methyl)pyridin-2-yl)-1-oxoisoindolin-2-yl)piperidine-2,6-dione] |
|  | ≥ 10000 | O=C1CCC(N2Cc3c(ccc(-c4nccc(CN5CCC(O)(c6ccccc6)CC5)c4F)c3F)C2=O)C(=O)N1 (stereo not shown) [Example 280, 3-(4-fluoro-5-(3-fluoro-4-((4-hydroxy-4-phenylpiperidin-1-yl)methyl)pyridin-2-yl)-1-oxoisoindolin-2-yl)piperidine-2,6-dione] |
|  | 22.1 | CC(C)(O)C1CN(Cc2ccnc(-c3ccc4c(c3F)CN(C3CCC(=O)NC3=O)C4=O)c2F)C1 (stereo not shown) [Example 281, 3-(4-fluoro-5-(3-fluoro-4-((3-(2-hydroxypropan-2-yl)azetidin-1-yl)methyl)pyridin-2-yl)-1-oxoisoindolin-2-yl)piperidine-2,6-dione] |
|  | ≥ 10000 | O=C1CCC(N2Cc3c(ccc(-c4nccc(CN5CCn6c(nnc6C(F)(F)F)C5)c4F)c3F)C2=O)C(=O)N1 (stereo not shown) [Example 282, 3-(4-fluoro-5-(3-fluoro-4-((3-(trifluoromethyl)-5,6-dihydro-[1,2,4]triazolo[4,3-a]pyrazin-7(8H)-yl)methyl)pyridin-2-yl)-1-oxoisoindolin-2-yl)piperidine-2,6-dione] |
|  | ≥ 10000 | O=C1CCC(N2Cc3c(ccc(-c4nccc(CN5CCc6c(ccnc6Cl)C5)c4F)c3F)C2=O)C(=O)N1 (stereo not shown) [Example 283, 3-(5-(4-((5-chloro-3,4-dihydro-2,6-naphthyridin-2(1H)-yl)methyl)-3-fluoropyridin-2-yl)-4-fluoro-1-oxoisoindolin-2-yl) piperidine-2,6-dione] |
